Series [1] addresses T1, 5HT2A(rat) (Rattus norvegicus, UniProt P14842). Nature of the series: 5HT2 Functional Assay: [Ca2+]i Mobilization (FLIPR, A7r5 cells). Also on record: endogenous in cells; host or cells: A7r5 rat vascular smooth muscle cells. The settings on record: for EC50: [Ca2+]i mobilization, rat vascular smooth muscle cells A7r5; for Emax: percentage of maximum 5-HT-induced response, A7r5 cells. The format is cell-based. On the procedure:
The receptor-mediated mobilization on intracellular calcium ([Ca^2+]i) was studied using the Fluorescence Imaging Plate Reader (FLIPR) instrument. Rat vascular smooth muscle cells, A7r5, were grown in a normal media of DMEM/10% FBS and 10 μg/mL gentamycin. Confluent cell monolayers were trypsinized, pelleted, and re-suspended in normal media. Cells were seeded in a 50 μL volume at a density of 20,000 cells/well in a black wall, 96-well tissue culture plate and grown for 2 days.
On the day of the experiment, one vial of FLIPR Calcium Assay Kit dye was re-suspended in 50 mL of a FLIPR buffer consisting of Hank's Balanced Salt Solution (HBSS), 20 mM HEPES, and 2.5 mM probenecid, pH 7.4. Cells were loaded with the calcium-sensitive dye by addition of an equal volume (50 μL) to each well of the 96-well plate and incubated with dye for 1 h at 23° C.
Compounds were diluted 1:50 in 20% DMSO/20% Ethanol. For “hit” screening, compounds were further diluted 1:10 in FLIPR buffer and tested at a final concentration of 10 μM.
The compound plate and cell plate were placed in the FLIPR instrument. At the beginning of an experimental run, a signal test was performed to check the basal fluorescence signal from the dye-loaded cells and the uniformity of the signal across the plate. The basal fluorescence was adjusted between 8000-12000 counts by modifying the exposure time, the camera F-stop, or the laser power. Instrument settings for a typical assay were the following: laser power 0.3-0.6 W, camera F-stop F/2, and exposure time 0.4 sec. An aliquot (25 μL) of the test compound was added to the existing 100 μL dye-loaded cells at a dispensing speed of 50 μL/sec. Fluorescence data were collected in real-time at 1.0 sec intervals for the first 60 secs and at 6.0 sec intervals for an additional 120 secs.

The target in series [2] is T1, 5HT2A(rat). Nature of the series: 5-HT2 Receptor Binding Assay ([125I]DOI competition, cerebral cortex homogenates). Also on record: Aliquots of post mortem rat or human cerebral cortex homogenates (400 μL) dispersed in 50 mM TrisHCl buffer; from tissue; host or cells: post mortem rat cerebral cortex homogenate. The settings on record: inhibition of [125I]DOI binding. On the procedure: 5-HT2 Receptor Binding Assay
Aliquots of post mortem rat or human cerebral cortex homogenates (400 μL) dispersed in 50 mM TrisHCl buffer (pH 7.4) are incubated with [^125I]DOI (80 pM final) in the absence or presence of methiothepin (10 μM final) to define total and non-specific binding, respectively, in a total volume of 0.5 mL. The assay mixture is incubated for 1 hour at 23° C. in polypropylene tubes and the assays terminated by rapid vacuum filtration over Whatman GF/B glass fiber filters previously soaked in 0.3% polyethyleneimine using ice-cold buffer. Test compounds (at different concentrations) are substituted for methiothepin. Filter-bound radioactivity is determined by scintillation spectrometry on a beta counter. The data are analyzed using a non-linear, iterative curve-fitting computer program [Trends Pharmacol. Sci., 16, 413 (1995)] to determine the compound affinity parameter. The concentration of the compound needed to inhibit the [^125I]DOI binding by 50% of the maximum is termed the IC50 or Ki value.

Series [3] relates to Conscious Cynomolgus Monkeys. The series is described as follows: IOP Response in Conscious Cynomolgus Monkeys. The format is in vivo, cynomolgus monkey. The settings on record: right eye. On the procedure: IOP was determined with an Alcon Pneumatonometer after light corneal anesthesia with 0.1% proparacaine. Eyes were washed with saline after each measurement. After a baseline IOP measurement, test compound was instilled in one 30 μL aliquot to the right eyes only of nine cynomolgus monkeys. Vehicle was instilled in the right eyes of six additional animals. Subsequent IOP measurements were taken at 1, 3, and 6 hours.

[4] abbreviates: 1 hour after dose, 300 μg topical.
The mark [5] stands for this setting: 3 hours after dose, 300 μg topical.
Where [6] appears, read: 6 hours after dose, 300 μg topical.

A word on the melting point: it is the temperature of the solid-liquid transition. In general, EC50 refers to the concentration needed to bring the measured effect to its halfway point. A word on the Emax: it is the maximal effect, on the per cent scale that the assay sets. The IC50 is the concentration that inhibits the measured activity by half. Read a low IC50 as greater potency.

The structures appear in SMILES notation. Structures can show the parent of a compound that is named as a salt.

T1 sequence (P14842 whole entry): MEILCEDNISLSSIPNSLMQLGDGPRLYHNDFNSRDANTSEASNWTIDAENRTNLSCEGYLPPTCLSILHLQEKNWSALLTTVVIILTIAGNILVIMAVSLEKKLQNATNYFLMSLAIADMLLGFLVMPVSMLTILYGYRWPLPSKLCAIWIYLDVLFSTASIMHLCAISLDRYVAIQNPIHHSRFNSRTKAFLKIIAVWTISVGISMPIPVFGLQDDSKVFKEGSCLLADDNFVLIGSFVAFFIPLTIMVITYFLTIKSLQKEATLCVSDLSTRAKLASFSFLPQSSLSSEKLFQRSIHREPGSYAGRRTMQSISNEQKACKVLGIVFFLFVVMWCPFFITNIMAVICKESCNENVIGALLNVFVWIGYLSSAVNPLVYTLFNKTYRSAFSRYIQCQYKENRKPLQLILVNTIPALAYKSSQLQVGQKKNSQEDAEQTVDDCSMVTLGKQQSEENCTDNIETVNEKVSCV

In turn, `CC(=O)NCCCNC(=O)c1cc2c(ccc3cnn(C[C@H](C)N)c32)o1` (as salt: fumarate) [Example 12, 1-((S)-2-Amino-propyl)-1H-furo[2,3-g]indazole-7-carboxylic acid (3-acetylaminopropyl)-amide] gave a melting point of 81 °C.

`CNC(=O)c1cc2c(ccc3cnn(C[C@H](C)N)c32)o1.O=C(O)/C=C/C(=O)O` [Example 4, 1-((S)-2-Aminopropyl)-1H-furo[2,3-g]indazole-7-carboxylic acid methyl amide fumarate]: the melting point was in the range of 180 to 182 °C. At 5HT2A(rat) [1], this molecule showed an EC50 of 54 nM and a maximum response (Emax) of 98%. The molecule further displayed a half-inhibitory concentration (IC50) at 5HT2A(rat) [2] of 0.81 nM. The “Percent IOP Reduction ± SEM” value in series [3] (setting [4]) is 13 ± 3%. In addition, in series [3] (setting [5]), the “Percent IOP Reduction ± SEM” value stood at 30 ± 4%. The “Percent IOP Reduction ± SEM” value in series [3] (setting [6]) worked out at 31 ± 4%.

The molecule `C[C@H](N)Cn1ncc2ccc3oc(CO)cc3c21` [Example 2, [1-((S)-2-Aminopropyl)-1H-furo[2,3-g]indazol-7-yl]-methanol] came in with a melting point of 110 to 112 °C. At 5HT2A(rat) [1], this molecule came in with an EC50 of 18 nM and an Emax of 86%. The concentration for half-maximal inhibition (IC50) at 5HT2A(rat) [2] was found to be 0.53 nM.

In turn, `Cc1noc(-c2cc3c(ccc4cnn(C[C@H](C)N)c43)o2)n1` (as salt: fumarate) [Example 15, (S)-1-Methyl-2-[7-(3-methyl-1,2,4-oxadiazol-5-yl)-furo[2,3-g]indazol-1-yl]-ethylamine] came in with a melting point of 187 to 189 °C.

Turning to `COc1cc(C[C@@H](C)N)c(OC)cc1I` [(R)-DOI, reference compound], the “Percent IOP Reduction ± SEM” value was 11 ± 5% in series [3] (1 hour after dose, 100 μg topical); 25 ± 3% in series [3] (3 hours after dose, 100 μg topical); 34 ± 5% in series [3] (6 hours after dose, 100 μg topical).

As to `C[C@H](N)Cn1ncc2ccc3oc(C(=O)NCC4(O)CC4)cc3c21` (as salt: fumarate) [Example 10, 1-((S)-2-Aminopropyl)-1H-furo[2,3-g]indazole-7-carboxylic acid (1-hydroxy-cyclopropylmethyl)-amide], the melting point was 77 to 79 °C.

Regarding `CC(=O)Nc1ccc(S(=O)(=O)NCc2cc3c(ccc4cnn(C[C@H](C)N)c43)o2)cc1` [Example 19, N-(4-{[1-((S)-2-Aminopropyl)-1H-furo[2,3-g]indazol-7-ylmethyl]-sulfamoyl}-phenyl)-acetamide], the melting point lay in the range of 80 to 85 °C. On 5HT2A(rat) [1], the EC50 was 131 nM and the Emax came out at 82%. The molecule further had an IC50 on 5HT2A(rat) [2] of 4.1 nM.

The molecule `C[C@H](N)Cn1ncc2ccc3oc(C(=O)NCCCN4CCCC4=O)cc3c21` (as salt: fumarate) [Example 13, 1-((S)-2-Aminopropyl)-1H-furo[2,3-g]indazole-7-carboxylic acid [3-(2-oxo-pyrrolidin-1-yl)-propyl]-amide] came in with a melting point of 82 °C.

`CCOC(=O)c1cc2c(ccc3cnn(C[C@H](C)N)c32)o1.O=C(O)/C=C/C(=O)O` [Example 1, 1-((S)-2-Aminopropyl)-1H-furo[2,3-g]indazole-7-carboxylic acid ethyl ester fumarate] displayed a melting point of 184 to 185 °C. At 5HT2A(rat) [1], the EC50 is 63 nM and the maximal effect (Emax) was 101%. Besides, the 50% inhibitory concentration (IC50) at 5HT2A(rat) [2] was found to be 0.21 nM.

`C[C@H](N)Cn1ncc2ccc3oc(C(=O)NCC(C)(C)CO)cc3c21` (as salt: fumarate) [Example 11, 1-((S)-2-Aminopropyl)-1H-furo[2,3-g]indazole-7-carboxylic acid (3-hydroxy-2,2-dimethyl-propyl)-amide]: the melting point was 103 °C.

With `C[C@H](N)Cn1ncc2ccc3oc(C(N)=O)cc3c21` [Example 3, 1-((S)-2-Aminopropyl)-1H-furo[2,3-g]indazole-7-carboxylic acid amide], at 5HT2A(rat) [1], the EC50 amounted to 158 nM. The molecule further registered an Emax at 5HT2A(rat) [1] of 87%. The same molecule came in with an IC50 at 5HT2A(rat) [2] of 2.3 nM. Also, the entries for the “Percent IOP Reduction ± SEM” value in series [3] (setting [4]), in series [3] (setting [5]) and in series [3] (setting [6]) were 9 ± 4%, 23 ± 4% and 27 ± 5%, respectively.

`C[C@H](N)Cn1ncc2ccc3oc(C(=O)NCC(C)(C)CO)cc3c21` [Example 11, 1-((S)-2-Aminopropyl)-1H-furo[2,3-g]indazole-7-carboxylic acid (3-hydroxy-2,2-dimethyl-propyl)-amide] returned a concentration giving a half-maximal response (EC50) at 5HT2A(rat) [1] of 74 nM. The molecule also returned a maximum response (Emax) on 5HT2A(rat) [1] of 76%. Further, on 5HT2A(rat) [2], the IC50 stood at 1.8 nM. Further, the “Percent IOP Reduction ± SEM” value is 10 ± 5% in series [3] (setting [4]), 23 ± 5% in series [3] (setting [5]) and 26 ± 5% in series [3] (setting [6]).

In turn, `C[C@H](N)Cn1ncc2ccc3oc(C(N)=O)cc3c21` (as salt: fumarate) [Example 3, 1-((S)-2-Aminopropyl)-1H-furo[2,3-g]indazole-7-carboxylic acid amide] gave a melting point of 170 to 172 °C.

Consider `COCCNC(=O)c1cc2c(ccc3cnn(C[C@H](C)N)c32)o1` (as salt: fumarate) [Example 8, 1-((S)-2-Aminopropyl)-1H-furo[2,3-g]indazole-7-carboxylic acid (2-methoxyethyl)-amide], for which the melting point was in the range of 75 to 76 °C.

With `Cc1ccc(CNC(=O)c2cc3c(ccc4cnn(C[C@H](C)N)c43)o2)o1` (as salt: fumarate) [Example 14, 1-((S)-2-Aminopropyl)-1H-furo[2,3-g]indazole-7-carboxylic acid (5-methyl-furan-2-ylmethyl)amide], the melting point lay within 118 to 120 °C.

Take `CC(O)CNC(=O)c1cc2c(ccc3cnn(C[C@H](C)N)c32)o1` (stereo partly drawn) (as salt: fumarate) [Example 9, 1-((S)-2-Aminopropyl)-1H-furo[2,3-g]indazole-7-carboxylic acid (2-hydroxypropyl)-amide]: the melting point fell in the range of 190 to 191 °C.

`C[C@H](N)Cn1ncc2ccc3oc(C(=O)NCCc4cnc[nH]4)cc3c21.O=C(O)/C=C/C(=O)O` [Example 6, 1-((S)-2-Aminopropyl)-1H-furo[2,3-g]indazole-7-carboxylic acid [2-(3H-imidazol-4-yl)-ethyl]-amide fumarate] came in with a melting point of 201 to 203 °C. Besides, at 5HT2A(rat) [1], the EC50 came to 57 nM and the Emax was found to be 95%. Moreover, at 5HT2A(rat) [2], the half-inhibitory concentration (IC50) came to 0.66 nM.

Consider `C[C@H](N)Cn1ncc2ccc3oc(C(=O)NCCCN4CCCC4=O)cc3c21` [Example 13, 1-((S)-2-Aminopropyl)-1H-furo[2,3-g]indazole-7-carboxylic acid [3-(2-oxo-pyrrolidin-1-yl)-propyl]-amide], for which, on 5HT2A(rat) [1], the EC50 amounted to 72 nM and the Emax was 87%. On 5HT2A(rat) [2], the 50% inhibitory concentration (IC50) was found to be 2 nM.

These data come from patent US7476687B2, “Substituted furo[2,3-g]indazoles for the treatment of glaucoma” (Alcon, Inc., priority 2003, dated 2009).
